Patent publication US10000791B2, “Measurement method for human pancreatic lipase activity” (ASAHI KASEI PHARMA CORPORATION, priority 2013, dated 2018)

Tested on: human pancreatic lipase
Test: pH dependence of human pancreatic lipase activity in the presence of bile acids (diglyceride substrate, UV method)
Type: biochemical
Experimental: After weighing 1,2-dioleoyl glycerol (DODG) (manufactured by Nippon Fine Chemical Co., Ltd.) to attain a concentration of 9.32 mmol/L when dissolved, 1% polyoxyethylene (10) nonyl phenyl ether (NPE) (manufactured by Wako Pure Chemical Industries Ltd.) containing 1.66 mmol/L of MES (manufactured by Dojindo Laboratories) was added thereto to be dissolved therein by stirring at 37° C. for 2 hours, and the resultant was allowed to stand still in ice for 2 hours or more. The thus obtained solution was used as a substrate original liquid.
The above-described diglyceride original liquid was used for preparing a “substrate stock solution” having the following composition:
A “first reaction solution (R-1)” having the following composition was prepared:
A “second reaction solution (R-2)” having the following composition was prepared:
A “second reaction solution (R-2) for sample blank” having the following composition was prepared:
A mixture of the substrate stock solution and the R-1 in a proportion of 1:2 was used as a first reagent. The R-2 was directly used as a second reagent. As a sample, pooled serum or a control sample (a control containing a pancreatic lipase) was used. A proportion in amount among the sample, the first reagent and the second reagent was set as sample:first reagent:second reagent of 0.01 ml:0.18 ml:0.06 ml. The sample was added to the first reagent, the resultant mixture was heated at 37° C. for 5 minutes, the second reagent was added thereto, and a change rate of an absorbance at 340 nm based on reduced NADP was obtained at 37° C. from 3 minutes after the addition of the second reagent to 4 minutes after the addition, and then, the lipase activity was calculated by using a molecular extinction coefficient of 6300 L/mol·cm of the reduced NADP. Besides, as a sample blank, saline was used instead of a sample, an absorbance was measured by using the reagent for sample blank obtained by removing MGLPII from the second reagent, and a difference between the thus measured two values was defined as an enzyme activity value. For the measurement, Hitachi automatic analyzer Model H7170 or H7080 was used.
As a conjugated bile acid to be added to the R-1, sodium taurodeoxycholate (NaTDCA), sodium glycodeoxycholate (NaGDCA), sodium glycochenodeoxycholate (NaGCDCA), sodium taurochenodeoxycholate (NaTCDCA), sodium glycocholate (NaGCA), sodium taurocholate (NaTCA) and sodium tauroursodeoxycholate (NaTUDCA) all in a concentration of 40 mmol/L were selected, the R-1 was adjusted, by using BES (manufactured by Dojindo Laboratories) respectively to pH 6.8, 7.0, 7.2, 7.4, 7.8, and 8.0, and the human pancreatic lipase activity was measured by using these. The pH of the R-2 was adjusted to be equal to that of the R-1.
It is noted that the concentration of each non-conjugated bile acid was set to be 24 mmol/L in the R-1. Besides, BES was used for adjusting pH to 7.2, 7.6, 7.8 and 8.0, and Bicine was used for adjusting pH to 8.2 and 8.5.
Similarly to Example 1, a mixture of the substrate stock solution and the R-1 in a proportion of 1:2 was used as a first reagent. Except for this, the measurement was performed in the same manner as in Example 1.
Besides, NaTCA was also combined with a conjugated bile acid, NaTDCA, to examine the pH for giving a maximum value of the human pancreatic lipase activity (the apparent optimum pH). It is noted that a BES buffer was used for adjusting pH to 6.9, 7.2 and 7.7, and a Bicine buffer was used for adjusting pH to 7.95 and 8.2. In each of the combinations of NaGCA/NaDCA, NaTCA/NaDCA, NaTUDCA/NaDCA and NaTCA/NaTDCA, the concentration of each bile acid was set to 20 mmol/L in the R-1. With respect to the combination of NaTCA and NaTDCA, a concentration of 40 mmol/L of NaTDCA was used as a control.
The compositions of the reagents and the measurement operation were the same as those of Example 2.

- optimum pH (NaTDCA 40 mmol/L control of Example 2): about 7.1
- pH for giving a maximum value of the human pancreatic lipase activity (apparent optimum pH) (pooled serum, conjugated bile acid singly, 40 mmol/L in R-1, BES pH 6.8-8.0): about 7
Compound: C[C@H](CCC(=O)NCCS(=O)(=O)[O-])[C@H]1CC[C@H]2[C@@H]3CC[C@@H]4C[C@H](O)CC[C@]4(C)[C@H]3C[C@H](O)[C@]12C.[Na+] [NaTDCA, sodium taurodeoxycholate]
